{"source": "patent US11628186B2", "about": "“Method and composition for the reduction of viral replication, duration and spread of the COVID-19 and the flu” (priority 2017, dated 2023)", "test_system": "patients with lung diseases including COPD", "assay": "Comparison of inhaled salts of pyruvate, 5 ml of 0.5 mM solution (Table I)", "key": {"[1]": {"conditions": "5 ml of 0.5 mM solution, inhaled"}}, "data": [{"smiles": "CC(=O)C(=O)[O-].[Na+]", "note": "[Sodium, sodium pyruvate]", "values": [{"measurement": "Increased in FEV-1% lung function", "setting": "5 ml of 0.5 mM solution in physiological saline, inhaled", "result": 13.0, "unit": "%"}, {"measurement": "Irritation", "setting": "[1]", "result": "none"}, {"measurement": "Percentage Increase in SaO2 over baseline", "setting": "[1]", "result": 0.5, "unit": "%"}, {"measurement": "Percentage decrease or increase of Nitric Oxide over baseline", "setting": "[1]", "result": "−19.0", "unit": "%"}, {"measurement": "Relief of congestion, coughing and lung tightness", "setting": "[1]", "result": 5}, {"measurement": "Overall Rating 1-10", "setting": "5 ml of 0.5 mM solution, 1 most negative, 10 best", "result": 8}, {"measurement": "FEV1", "setting": "5 mls of a 0.5 mM pyruvate inhalation solution in COPD and asthmatic patients", "result": "≥ 12", "unit": "%"}]}]}
